For the assay, the target named is 2-amino-3-carboxymuconate-6-semialdehyde decarboxylase (Homo sapiens, UniProt Q8TDX5). The assay can be described thus: Inhibition of human recombinant ACMSD1 expressed in Escherichia coli BL21 (DE3) cells assessed as reduction in conversion of 3-OH-anthranilic acid into ACMS by spectrophotometry.
Chain of 2-amino-3-carboxymuconate-6-semialdehyde decarboxylase (Q8TDX5 whole entry): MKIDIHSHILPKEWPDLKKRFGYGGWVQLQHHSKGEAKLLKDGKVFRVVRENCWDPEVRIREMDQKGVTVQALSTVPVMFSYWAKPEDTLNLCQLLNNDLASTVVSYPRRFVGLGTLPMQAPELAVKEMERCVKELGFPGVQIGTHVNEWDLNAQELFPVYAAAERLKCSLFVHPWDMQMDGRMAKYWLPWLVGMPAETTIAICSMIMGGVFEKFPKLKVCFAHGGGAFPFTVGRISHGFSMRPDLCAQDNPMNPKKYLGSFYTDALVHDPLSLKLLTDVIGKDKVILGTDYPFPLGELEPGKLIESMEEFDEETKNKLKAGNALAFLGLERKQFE

With `CCOc1cccc(/C=C/c2[nH]c(=S)[nH]c(=O)c2C#N)c1OCC(=O)O`, the IC50 was above 100 nM. Next, `N#Cc1c(/C=C/c2cccc(O)c2O)[nH]c(=S)[nH]c1=O`: above 100 nM; `COc1cccc(/C=C/c2[nH]c(=S)[nH]c(=O)c2C#N)c1OCC(=O)O`: above 100 nM.

Regarding `COc1cccc(/C=C/c2[nH]c(=O)[nH]c(=O)c2[N+](=O)[O-])c1OCC(=O)O`, the IC50 was above 100 nM. Next, `N#Cc1c(/C=C/c2ccccc2-c2cc(F)c(O)c(F)c2)[nH]c(=S)[nH]c1=O`: above 100 nM.

In general, IC50 refers to the concentration that gives 50% inhibition.

Source of the values: ChEMBL document CHEMBL4420067, “Inhibitors of alpha-amino-beta-carboxymuconic acid semialdehyde decarboxylase” (2018).
